Laboratory results published in patent US5270325A, “P-hydroxy phenone derivatives used in the treatment of cardiac arrhythmia” (BASF Aktiengesellschaft, priority 1988, dated 1993).

System: QT interval
Assay: Class III antiarrhythmic action in guinea-pigs after intravenous administration (increase in the QT interval, ECG)
Type: in vivo, Pirbright white guinea-pigs
Conditions: Cavia porcellus, anesthetized (urethane) guinea-pigs, ED 20% from linear relation between log dose and relative increase in the QT interval
Protocol: The experimental animals are male and female Pirbright white guinea-pigs weighing from 300 to 500 g. They are anesthetized with 1.5 g/kg urethane i.p. The substances are administered intravenously. The ECG conduction times and the heart rate are measured from a recording from extremity lead II. The measured variables are the QT and PQ intervals and the heart rate. 4 to 6 animals are used per dose. The criterion of a class III action is an increase in the QT interval compared with the values before administration of the substance. An increase in PQ and a large decrease in the heart rate serve as exclusion criteria. The ED 20% is calculated from the linear relation between log dose (mg/kg) of the substance and the relative increase in the QT interval (in %).

SMILES | ED (20%) [mg/kg]
CC(C)NCC(O)c1ccc(NS(C)(=O)=O)cc1 (single isomer, unassigned) [D-Sotalol] | 3.6
Cc1cc(C(=O)/C=C/c2cccn2C)cc(C)c1OCCN1CCCC1.O=C(O)/C=C/C(=O)O [Example 2, 3,5-Dimethyl-4-[2-(1-pyrrolidinyl)ethoxy]phenyl E-2-(1-methyl-2-pyrrolyl)ethenyl ketone fumarate] | 1.1
Cc1ccsc1/C=C/C(=O)c1cc(C)c(OCCN2CCCC2)c(C)c1.O=C(O)/C=C/C(=O)O [Example 4, 3,5-Dimethyl-4-[2-(1-pyrrolidinyl)ethoxy]phenyl E-2-(3-methyl-2-thienyl)ethenyl ketone fumarate] | 1.2
Cc1cc(C(=O)/C=C/c2ccccc2C(F)(F)F)cc(C)c1OCCN1CCCC1.O=C(O)/C=C/C(=O)O [Example 5, 3',5'-Dimethyl-4'-[2-(1-pyrrolidinyl)ethoxy]-2-trifluoromethylchalcone fumarate] | 1

System: arrhythmias
Assay: not given
Conditions: literature: Circulation 68 (1983) 88-94; Am. Heart J. 109 (1985) 949-958; J. Clin. Pharmacol. 27 (1987) 708; cited from earlier work

SMILES | acting against arrhythmias which are otherwise resistant to therapy
CC(C)NCC(O)c1ccc(NS(C)(=O)=O)cc1 (single isomer, unassigned) [D-Sotalol] | acting against arrhythmias which are otherwise resistant to therapy, especially reentry arrhythmias
CCCCc1oc2ccccc2c1C(=O)c1cc(I)c(OCCN(CC)CC)c(I)c1 [amiodarone] | acting against arrhythmias which are otherwise resistant to therapy, especially reentry arrhythmias
